How the values were obtained:
[1] = tested on: Chung model rats which are models of neuropathic pain; test: Test for analgesic effect (allodynia, von Frey filament, up-down method) in Chung model rats; assay type: in vivo, rats of Wistar strain; settings: for 50% Reaction Threshold Values, Before Administration: baseline
Experimental: Test for analgesic effect was conducted using Chung model rats which are models of neuropathic pain. Male rats of Wistar strain of 9 weeks age were used as experimental animals and model rats were prepared according to a method of Kim and Chung (Pain, vol. 50, pages 355 to 363, 1992). Thus, when they were in 10 weeks age, rat L5 spinal nerve was exposed and the periphery side of L5 dorsal root ganglion was strongly ligated with 5-0 silk yarn under anesthetizing with pentobarbital (40 mg/kg, intraperitoneal administration) to conduct a nerve damage. The animals were placed in a transparent acrylic cage where the bottom was wire net, 50% reaction threshold values were calculated by an up-down method using a von Frey filament (manufactured by North Coast Medical Inc.) according to a method of Chaplan, et al. (J. Neurosci. Method, vol. 53, pages 55 to 63, 1994) and the effect of the test substance to allodynia was measured. […] In those experimental animals, each group comprised seven animals using the 50% reaction threshold values after the nerve damage as an index and the group constitution was done in such a manner that mean values of a nerve damage control group and of a test substance-administered group were made nearly uniform.
N-acetylneuraminic acid as a test substance was intraperitoneally administered in a single dose (120 mg/kg). A 0.5% CMC-Na (w/v) solution/physiological saline was similarly administered to the nerve damage control group (control group). After 30 minutes from the administration of a test substance, pain tests were conducted and the calculated 50% reaction threshold values were expressed in terms of mean value±standard deviation for each group.
Further, in the same manner as the above test, N-acetylneuraminic acid as a test substance was orally administered in a single dose (300 mg/kg). Injection solvent was administered to a nerve damage control group (control group) in the same manner. After 60 minutes from the administration of a test substance, pain tests were conducted and the 50% reaction threshold values were calculated. Numbers of the animals were eight for each of the nerve damage control group and the test substance-administered group.

[2] = disclosed in Patent Document 1 / Example 8 of Japanese Examined Patent Publication No. 63/028,411; cited from earlier work

| SMILES | 50% reaction threshold value as compared with the nerve damage control group (anti-allodynia action) ([1]; both single intraperitoneal injection and single oral administration) | 50% Reaction Threshold Values, Before Administration ([1]; group later given a single intraperitoneal dose of 120 mg/kg, mean ± standard deviation) | 50% Reaction Threshold Values, Before Administration ([1]; group later given a single oral dose of 300 mg/kg) | 50% Reaction Threshold Values, After 30 minutes from Administration ([1]; single intraperitoneal dose 120 mg/kg, 30 minutes after administration, mean ± standard deviation, *P < 0.05 vs nerve damage control) | 50% Reaction Threshold Values, After 60 minutes from Administration ([1]; single oral dose 300 mg/kg, 60 minutes after administration, *P < 0.05 vs nerve damage control) | Acute toxicity [2] |
| --- | --- | --- | --- | --- | --- | --- |
| CC(=O)N[C@H]1[C@H]([C@H](O)[C@H](O)CO)OC(O)(C(=O)O)C[C@@H]1O (stereo partly shown) [N-Acetylneuraminic Acid, N-acetylneuraminic acid] | significant rise | 2.63 ± 0.21 g | 2.75 ± 0.15 g | 6.74 ± 1.64* g | 4.81 ± 0.35* g | very low and safe |
| CC(=O)N[C@H]1[C@H]([C@H](O)[C@H](O)CO)OC(O)(C(=O)[O-])C[C@@H]1O.[Na+] (stereo partly shown) [sodium N-acetylneuraminate] |  |  |  |  |  | very lowly toxic |
